Literature values as cited in patent publication US20240207338A1, “KETAMINE AND CANNABIS FOR THE TREATMENT OF EMOTIONAL DISORDERS” (Progressive Therapeutics Inc, priority 2021, published 2024).

NC1(c2ccccc2Cl)CCCCC1=O (centres unmarked) [norketamine]
potency for use in anesthesia relative to ketamine (versus ketamine): one third the potency

CN[C@]1(c2ccccc2Cl)CCCCC1=O [S-(+)-ketamine]
potency for use in anesthesia relative to R-(−)-ketamine (versus R-(−)-ketamine): twice as potent
